This is an account of results in patent publication US11066414B2, “Cot modulators and methods of use thereof” (Gilead Sciences, Inc., priority 2015, dated 2021).

The test system of assay [1] is TNFα. Briefly: Cot Monocyte TNFα Cell Based Assay.
Assay [2] deals with Human Cot (Homo sapiens (Human), UniProt P41279). Briefly: High Throughput Cot Biochemical Assay.
Setting [3] is: Homo sapiens, Monocyte, read-out: EC50 TNF, LPS-stimulated human monocytes, TNFα.
[4] abbreviates: IC50 HTRF, Cot HTRF (TR-FRET) biochemical assay.
[5] abbreviates: read-out: EC50 TNF, LPS-stimulated human monocytes, TNFα TR-FRET.
Setting [6] is: read-out: IC50 HTRF, Cot HTRF (TR-FRET KinEASE) biochemical assay, 400 μM ATP.

Where two headings read alike, the source gives them in different places. Some results are limits rather than exact numbers.

Human Cot, sequence (P41279 30-397): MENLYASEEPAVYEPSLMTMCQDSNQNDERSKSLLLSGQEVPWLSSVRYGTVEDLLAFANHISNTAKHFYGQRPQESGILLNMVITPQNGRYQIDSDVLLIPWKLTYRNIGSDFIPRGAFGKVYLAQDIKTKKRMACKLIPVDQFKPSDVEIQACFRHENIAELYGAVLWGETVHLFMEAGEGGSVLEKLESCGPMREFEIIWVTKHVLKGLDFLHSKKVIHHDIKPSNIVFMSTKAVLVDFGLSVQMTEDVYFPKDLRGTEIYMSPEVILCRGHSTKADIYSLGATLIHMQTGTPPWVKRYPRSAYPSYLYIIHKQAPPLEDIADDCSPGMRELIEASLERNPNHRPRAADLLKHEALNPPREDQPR

Consider `CC(C)(C)CNc1c(C#N)cnc2c(Cl)cc(N[C@H](c3cn(C4(C5CC5)CC4)nn3)c3cccc4ncccc34)cc12` [Example 691, (S)-6-(((1-([1,1′-bi(cyclopropan)]-1-yl)-1H-1,2,3-triazol-4-yl)(quinolin-5-yl)methyl)amino)-8-chloro-4-(neopentylamino)quinoline-3-carbonitrile], for which, in assay [1] (setting [3]), the 50% effective concentration (EC50) – broadly, the midpoint of the concentration-response curve – was 66 nM. Besides, half-maximal inhibition in assay [2] (setting [4]) (IC50) required 6 nM.
For the molecule `Cc1nc(F)ccc1[C@H](Nc1cc(Cl)c2ncc(C#N)c(NCC(C)(C)C)c2c1)c1cn(C2CC(F)(F)C2)nn1` [Example 645, (S)-8-chloro-6-(((1-(3,3-difluorocyclobutyl)-1H-1,2,3-triazol-4-yl)(6-fluoro-2-methylpyridin-3-yl)methyl)amino)-4-(neopentylamino)quinoline-3-carbonitrile], the half-maximal effective concentration (EC50) in assay [1] (setting [3]) came out at 66 nM. In assay [2] (setting [4]), it took 11 nM to reach half-maximal inhibition (IC50).
The matching figures for `CC(C)(C)N1CCC(n2cc([C@@H](Nc3cc(Cl)c4ncc(C#N)c(Nc5ccc(F)c(Cl)c5)c4c3)c3ccc4scnc4c3)nn2)CC1` [Example 62, (S)-6-((benzo[d]thiazol-5-yl(1-(1-(tert-butyl)piperidin-4-yl)-1H-1,2,3-triazol-4-yl)methyl)amino)-8-chloro-4-((3-chloro-4-fluorophenyl)amino)quinoline-3-carbonitrile]: 216 nM and 10 nM.
`N#Cc1cnc2c(Cl)cc(N[C@@H](c3cscn3)c3cn(C4COC4)nn3)cc2c1Nc1ccc(F)c(Cl)c1` [Example 363, (S)-8-chloro-4-((3-chloro-4-fluorophenyl)amino)-6-(((1-(oxetan-3-yl)-1H-1,2,3-triazol-4-yl)(thiazol-4-yl)methyl)amino)quinoline-3-carbonitrile]: in assay [1] (setting [3]), the half-maximal effective concentration (EC50) is 257 nM. In addition, the midpoint of inhibition in assay [2] (setting [4]), the IC50, lay at 4 nM.
For the molecule `CC(C)(C)CNc1c(C#N)cnc2c(C#N)cc(N[C@H](c3cn(C4(C(F)(F)F)CC4)nn3)c3cccc4c(=O)n(C(F)F)ccc34)cc12` [Example 889, (S)-6-(((2-(difluoromethyl)-1-oxo-1,2-dihydroisoquinolin-5-yl)(1-(1-(trifluoromethyl)cyclopropyl)-1H-1,2,3-triazol-4-yl)methyl)amino)-4-(neopentylamino)quinoline-3,8-dicarbonitrile], the 50% effective concentration (EC50) in assay [1] (Homo sapiens, Monocyte, read-out: EC50 TNF, LPS-stimulated human monocytes, TNFα TR-FRET) came to 104 nM. Besides, in assay [2] (IC50 HTRF, Cot HTRF (TR-FRET KinEASE) biochemical assay, 400 μM ATP), the IC50 (commonly the point on the concentration scale where inhibition reaches its midpoint) worked out at 9 nM.
For the molecule `N#Cc1cnc2c(Cl)cc(N[C@H](c3cn(C4CCNCC4)nn3)c3cncs3)cc2c1Nc1ccc(F)c(Cl)c1` [Example 375, (R)-8-chloro-4-((3-chloro-4-fluorophenyl)amino)-6-(((1-(piperidin-4-yl)-1H-1,2,3-triazol-4-yl)(thiazol-5-yl)methyl)amino)quinoline-3-carbonitrile], the EC50 in assay [1] (setting [3]) was determined as 1510 nM. In addition, in assay [2] (setting [4]), the half-inhibitory concentration (IC50) came to 4 nM.
`CCc1nc(F)ccc1[C@H](Nc1cc(Cl)c2ncc(C#N)c(NCC(C)(C)C)c2c1)c1cn(C2(C(F)(F)F)CC2)nn1` [Example 593, (S)-8-chloro-6-(((2-ethyl-6-fluoropyridin-3-yl)(1-(1-(trifluoromethyl)cyclopropyl)-1H-1,2,3-triazol-4-yl)methyl)amino)-4-(neopentylamino)quinoline-3-carbonitrile]: the EC50 in assay [1] (setting [3]) amounted to 298 nM. Besides, 8 nM corresponded to half-maximal inhibition in assay [2] (setting [4]) (IC50).
As to `Cn1ccc2c([C@H](Nc3cc(Cl)c4ncc(C#N)c(NCC(C)(C)C)c4c3)c3cn(C4(C5CC5)CC4)nn3)cccc2c1=O` [Example 779, (S)-6-(((1-([1,1′-bi(cyclopropan)]-1-yl)-1H-1,2,3-triazol-4-yl)(2-methyl-1-oxo-1,2-dihydroisoquinolin-5-yl)methyl)amino)-8-chloro-4-(neopentylamino)quinoline-3-carbonitrile], the half-maximal effective concentration (EC50) in assay [1] (setting [3]) was 26 nM. The molecule further displayed an IC50 in assay [2] (setting [4]) of 3 nM.
For the molecule `CC[C@@H](Nc1c(C#N)cnc2c(Cl)cc(N[C@@H](c3cccnc3)c3cn(CCF)nn3)cc12)c1ccccc1` [Example 177, 8-chloro-6-(((S)-(1-(2-fluoroethyl)-1H-1,2,3-triazol-4-yl)(pyridin-3-yl)methyl)amino)-4-(((R)-1-phenylpropyl)amino)quinoline-3-carbonitrile], in assay [1] (setting [3]), the EC50 is 79 nM. Also, in assay [2] (setting [4]), the IC50 was 2 nM.
For `CC(C)(C)CNc1c(C#N)cnc2c(Cl)cc(N[C@H](c3cn(C4(C(N)=O)CC4)nn3)c3cccc4ncsc34)cc12` [Example 416, (S)-1-(4-(benzo[d]thiazol-7-yl((8-chloro-3-cyano-4-(neopentylamino)quinolin-6-yl)amino)methyl)-1H-1,2,3-triazol-1-yl)cyclopropane-1-carboxamide], the EC50 in assay [1] (setting [3]) worked out at 124 nM. This molecule gave an IC50 in assay [2] (setting [4]) of 2 nM.
On to `Cn1ccc2c([C@H](Nc3cc(C#N)c4ncc(C#N)c(NCC(C)(C)C)c4c3)c3cn(C4(C(F)F)CC4)nn3)cccc2c1=O` [Example 871], for which the EC50 in assay [1] (setting [5]) stood at 32 nM. The IC50 in assay [2] (setting [6]) was 1 nM.
Take `CC(C)n1cc([C@@H](Nc2cc(Cl)c3ncc(C#N)c(N[C@@H](CCO)c4ccccc4)c3c2)c2cccnc2)nn1` [Example 184, 8-chloro-4-(((S)-3-hydroxy-1-phenylpropyl)amino)-6-(((S)-(1-isopropyl-1H-1,2,3-triazol-4-yl)(pyridin-3-l)methyl)amino)-quinoline-3-carbonitrile]: the concentration giving a half-maximal response (EC50) in assay [1] (read-out: EC50 TNF, LPS-stimulated human monocytes, TNFα) amounted to 387 nM. In addition, the IC50 in assay [2] (read-out: IC50 HTRF, Cot HTRF (TR-FRET) biochemical assay) was found to be 8 nM.
For `Cn1ccc2c([C@H](Nc3cc(Cl)c4ncc(C#N)c(NCC(C)(C)C)c4c3)c3cn(C4(C)CCC4)nn3)cccc2c1=O` [Example 800, (S)-8-chloro-6-(((2-methyl-1-oxo-1,2-dihydroiso-quinolin-5-yl)(1-(1-methylcyclobutyl)-1H-1,2,3-triazol-4-yl)methyl)amino)-4-(neopentylamino)quinoline-3-carbonitrile], the EC50 in assay [1] (setting [5]) was determined as 25 nM. Also, the half-inhibitory concentration (IC50) in assay [2] (setting [6]) was found to be 2 nM.
Regarding `CN(C)CCn1cc([C@@H](Nc2cc(Cl)c3ncc(C#N)c(Nc4ccc(F)c(Cl)c4)c3c2)c2cscn2)nn1` [Example 355, (S)-8-chloro-4-((3-chloro-4-fluorophenyl)amino)-6-(((1-(2-(dimethylamino)ethyl)-1H-1,2,3-triazol-4-yl)(thiazol-4-yl)methyl)-amino)quinoline-3-carbonitrile], the concentration giving a half-maximal response (EC50) in assay [1] (setting [3]) is 194 nM. For the same molecule, half-maximal inhibition in assay [2] (setting [4]) (IC50) required 5 nM.
For `CC(C)(C)N1CCC(n2cc([C@@H](Nc3cc(Cl)c4ncc(C#N)c(Nc5ccc(F)c(Cl)c5)c4c3)c3cscn3)nn2)CC1` [Example 353, (S)-6-(((1-(1-(tert-butyl)piperidin-4-yl)-1H-1,2,3-triazol-4-yl)(thiazol-4-yl)methyl)amino)-8-chloro-4-((3-chloro-4-fluorophenyl)amino)-quinoline-3-carbonitrile], the half-maximal effective concentration (EC50) in assay [1] (setting [3]) was found to be 184 nM. In addition, half-maximal inhibition in assay [2] (setting [4]) (IC50) was put at 4 nM.
For the molecule `Cc1nc(F)ccc1[C@H](Nc1cc(Cl)c2ncc(C#N)c(NCC(C)(C)C)c2c1)c1cn(C(C)(C)CF)nn1` [Example 531, (S)-8-chloro-6-(((1-(1-fluoro-2-methyl-propan-2-yl)-1H-1,2,3-triazol-4-yl)(6-fluoro-2-methylpyridin-3-yl)methyl)amino)-4-(neopentylamino)quinoline-3-carbonitrile], the concentration giving a half-maximal response (EC50) in assay [1] (setting [3]) came out at 70 nM. The molecule also displayed an IC50 in assay [2] (setting [4]) of 3 nM.
For the molecule `Cc1nc(F)ccc1[C@H](Nc1cc(C#N)c2ncc(C#N)c(N[C@H](C)C(C)(C)C)c2c1)c1cn(C2(C(F)(F)F)CC2)nn1` [Example 583, 4-(((R)-3,3-dimethylbutan-2-yl)amino)-6-(((S)-(6-fluoro-2-methylpyridin-3-yl)(1-(1-(trifluoromethyl)cyclopropyl)-1H-1,2,3-triazol-4-yl)methyl)amino)quinoline-3,8-dicarbonitrile], the EC50 in assay [1] (setting [3]) came to 121 nM. Also, the IC50 in assay [2] (setting [4]) came to 4 nM.
With `Cc1ncccc1[C@H](Nc1cc(Cl)c2ncc(C#N)c(N[C@@H](CO)c3ccccc3)c2c1)c1c[nH]nn1` [Example 219, 8-chloro-4-(((R)-2-hydroxy-1-phenylethyl)amino)-6-(((S)-(2-methylpyridin-3-yl)(1H-1,2,3-triazol-4-yl)methyl)amino)quinoline-3-carbonitrile], the EC50 in assay [1] (setting [3]) is more than 10000 nM. Moreover, half-maximal inhibition in assay [2] (setting [4]) (IC50) was put at 4450 nM.
The matching figures for `CC(C)(C)CNc1c(C#N)cnc2c(Cl)cc(N[C@H](c3cn(C4CC4)nn3)c3cccc4ccncc34)cc12` [Example 504, (S)-8-chloro-6-(((1-cyclopropyl-1H-1,2,3-triazol-4-yl)(isoquinolin-8-yl)methyl)amino)-4-(neopentylamino)quinoline-3-carbonitrile]: 38 nM and 1 nM.
For the molecule `CC(C)(CNc1c(C#N)cnc2c(C#N)cc(N[C@H](c3cn(C4(C(F)F)CC4)nn3)c3cccc4ncccc34)cc12)C(F)(F)F` [Example 894], the EC50 in assay [1] (setting [5]) is 54 nM. Moreover, in assay [2] (setting [6]), the half-inhibitory concentration (IC50) turned out to be 3 nM.
For the molecule `CC(C)(C)N1CCC(n2cc([C@@H](Nc3cc(Cl)c4ncc(C#N)c(Nc5ccc(Cl)c(Cl)c5F)c4c3)c3cccnc3)nn2)CC1` [Example 260, (S)-6-(((1-(1-(tert-butyl)piperidin-4-yl)-1H-1,2,3-triazol-4-yl)(pyridin-3-yl)methyl)amino)-8-chloro-4-((3,4-dichloro-2-fluorophenyl)amino)-quinoline-3-carbonitrile], in assay [1] (setting [3]), the EC50 stood at 126 nM. In addition, the IC50 in assay [2] (setting [4]) came out at 6 nM.
For the molecule `Cc1cncc([C@H](Nc2cc(Cl)c3ncc(C#N)c(Nc4ccc(F)c(Cl)c4)c3c2)c2cn(C(C)C)nn2)c1` [Example 228, (S)-8-chloro-4-((3-chloro-4-fluorophenyl)amino)-6-(((1-isopropyl-1H-1,2,3-triazol-4-yl)(5-methylpyridin-3-yl)methyl)amino)quinoline-3-carbonitrile], the 50% effective concentration (EC50) in assay [1] (setting [3]) was found to be 2310 nM. Moreover, in assay [2] (setting [4]), inhibition was half-maximal at 18 nM (IC50).
